In ChEMBL document CHEMBL4699582, “Discovery of OATD-01, a First-in-Class Chitinase Inhibitor as Potential New Therapeutics for Idiopathic Pulmonary Fibrosis” (J Med Chem, 2020):
Calls of active or inactive are those of the source. The calls are words filed in the database; no cut-off is given here.

What was measured:
[1] = Oral bioavailability in Sprague-Dawley rat at 6 mg/kg, administered as single dose by LC-MS/MS analysis; assay type: ADME, organism-based; details: in vivo
[2] = target: Solute carrier organic anion transporter family member 1B1 (Homo sapiens, UniProt Q9Y6L6); test: Inhibition of OATP1B1 (unknown origin) at 1 to 10 uM; details: dose 1-10 µM
Chain of Solute carrier organic anion transporter family member 1B1 (Q9Y6L6 whole entry): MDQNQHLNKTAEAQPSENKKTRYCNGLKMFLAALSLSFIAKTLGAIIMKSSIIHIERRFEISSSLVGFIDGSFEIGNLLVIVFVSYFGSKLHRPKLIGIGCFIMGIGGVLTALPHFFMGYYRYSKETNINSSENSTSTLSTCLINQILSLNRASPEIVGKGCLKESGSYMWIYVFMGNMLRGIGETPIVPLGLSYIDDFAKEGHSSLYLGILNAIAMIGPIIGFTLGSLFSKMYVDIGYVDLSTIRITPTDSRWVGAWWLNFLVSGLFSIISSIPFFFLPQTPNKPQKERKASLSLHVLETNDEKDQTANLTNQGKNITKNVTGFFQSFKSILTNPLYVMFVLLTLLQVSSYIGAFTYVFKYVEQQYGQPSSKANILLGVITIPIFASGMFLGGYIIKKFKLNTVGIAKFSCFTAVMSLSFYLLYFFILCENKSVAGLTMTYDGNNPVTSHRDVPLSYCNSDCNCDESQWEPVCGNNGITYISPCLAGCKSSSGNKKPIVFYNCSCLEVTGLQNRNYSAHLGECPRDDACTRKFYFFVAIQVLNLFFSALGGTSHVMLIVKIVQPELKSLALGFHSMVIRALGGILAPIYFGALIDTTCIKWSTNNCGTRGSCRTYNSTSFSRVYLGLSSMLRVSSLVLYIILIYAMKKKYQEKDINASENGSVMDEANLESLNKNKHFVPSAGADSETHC

[3] = Clearance (0 to 24 hrs) in Sprague-Dawley rat at 2 mg/kg, iv administered as single bolus dose by LC-MS/MS analysis; assay type: ADME, organism-based; details: in vivo
[4] = Clearance (0 to infinity) in Balb/c mouse at 3 mg/kg, iv administered as single bolus dose by LC-MS/MS analysis; assay type: ADME, organism-based; details: in vivo
[5] = Dose normalized Cmax in Balb/c mouse at 10 mg/kg, po administered as single dose by LC-MS/MS analysis; assay type: ADME, organism-based; details: in vivo
Chitotriosidase-1 = Chitotriosidase-1 (Mus musculus, UniProt Q9D7Q1); test: biochemical
Chain of Chitotriosidase-1 (Q9D7Q1 whole entry): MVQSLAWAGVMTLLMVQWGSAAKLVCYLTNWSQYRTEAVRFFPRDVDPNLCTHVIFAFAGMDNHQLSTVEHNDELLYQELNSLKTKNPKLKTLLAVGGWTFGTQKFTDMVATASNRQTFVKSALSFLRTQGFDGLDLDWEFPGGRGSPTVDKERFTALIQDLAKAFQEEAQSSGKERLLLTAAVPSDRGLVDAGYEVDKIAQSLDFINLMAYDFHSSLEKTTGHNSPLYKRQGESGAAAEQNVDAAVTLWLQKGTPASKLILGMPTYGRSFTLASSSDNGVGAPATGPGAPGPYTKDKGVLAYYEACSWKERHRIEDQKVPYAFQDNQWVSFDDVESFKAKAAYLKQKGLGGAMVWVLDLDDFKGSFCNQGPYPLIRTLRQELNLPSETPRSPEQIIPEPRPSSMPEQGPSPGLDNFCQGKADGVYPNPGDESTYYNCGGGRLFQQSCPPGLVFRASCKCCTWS
Description: Inhibition of recombinant full-length C-terminal his-tagged mouse CHIT1 expressed in CHO-K1 cells assessed as reduction in chitinolytic activity using 4-methylumbelliferyl-beta-D-N,N',N"-triacetylchitotrioside as substrate after 60 mins by fluorometric assay

[6] = Dose normalized AUC (0 to 24 hrs) in Balb/c mouse at 3 mg/kg, iv administered as single bolus dose by LC-MS/MS analysis; assay type: ADME, organism-based; details: in vivo
[7] = Volume of distribution at steady state in Balb/c mouse at 3 mg/kg, iv administered as single bolus dose measured upto 24 hrs by LC-MS/MS analysis; assay type: ADME, organism-based; details: in vivo, read-out: Vdss
[8] = target: Ileal sodium/bile acid cotransporter (Homo sapiens, UniProt Q12908); test: Inhibition of ASBT (unknown origin) at 1 to 10 uM; details: dose 1-10 µM
Cytochrome P450 2D6 = Cytochrome P450 2D6 (Homo sapiens, UniProt P10635); test: Inhibition of CYP2D6 (unknown origin); assay type: ADME
Chain of Cytochrome P450 2D6 (P10635 whole entry): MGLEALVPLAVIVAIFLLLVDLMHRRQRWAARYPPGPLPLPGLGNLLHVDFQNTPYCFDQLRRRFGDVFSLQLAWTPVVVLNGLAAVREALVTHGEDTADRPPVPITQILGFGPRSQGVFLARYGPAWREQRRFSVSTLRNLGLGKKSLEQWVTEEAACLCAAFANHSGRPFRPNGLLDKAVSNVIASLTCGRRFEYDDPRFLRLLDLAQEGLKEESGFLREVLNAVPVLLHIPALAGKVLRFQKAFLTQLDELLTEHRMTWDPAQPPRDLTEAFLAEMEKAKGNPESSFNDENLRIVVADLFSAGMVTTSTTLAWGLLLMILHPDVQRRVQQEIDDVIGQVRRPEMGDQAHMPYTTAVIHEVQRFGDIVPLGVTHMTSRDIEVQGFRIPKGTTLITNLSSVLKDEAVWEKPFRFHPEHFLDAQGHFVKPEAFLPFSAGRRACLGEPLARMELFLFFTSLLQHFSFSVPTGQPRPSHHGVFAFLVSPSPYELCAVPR

[9] = Elimination half-life in Sprague-Dawley rat at 2 mg/kg, iv administered as single bolus dose by LC-MS/MS analysis; assay type: ADME, organism-based; details: in vivo, read-out: beta t1/2 (converted)
[10] = Cmax in Sprague-Dawley rat at 6 mg/kg, po administered as single dose by LC-MS/MS analysis; assay type: ADME, organism-based; parameters: route oral, dose 6 mg/kg; details: in vivo
Mus musculus [11] = species: Mus musculus; details: C57BL/6N, dose 30.0 mg/kg
Cytochrome P450 1A2 = Cytochrome P450 1A2 (Homo sapiens, UniProt P05177); test: Inhibition of CYP1A2 (unknown origin); assay type: ADME
[12] = target: Solute carrier family 22 member 6 (Homo sapiens, UniProt Q4U2R8); test: Inhibition of OAT1 (unknown origin) at 1 to 10 uM; details: dose 1-10 µM
Chain of Solute carrier family 22 member 6 (Q4U2R8 whole entry): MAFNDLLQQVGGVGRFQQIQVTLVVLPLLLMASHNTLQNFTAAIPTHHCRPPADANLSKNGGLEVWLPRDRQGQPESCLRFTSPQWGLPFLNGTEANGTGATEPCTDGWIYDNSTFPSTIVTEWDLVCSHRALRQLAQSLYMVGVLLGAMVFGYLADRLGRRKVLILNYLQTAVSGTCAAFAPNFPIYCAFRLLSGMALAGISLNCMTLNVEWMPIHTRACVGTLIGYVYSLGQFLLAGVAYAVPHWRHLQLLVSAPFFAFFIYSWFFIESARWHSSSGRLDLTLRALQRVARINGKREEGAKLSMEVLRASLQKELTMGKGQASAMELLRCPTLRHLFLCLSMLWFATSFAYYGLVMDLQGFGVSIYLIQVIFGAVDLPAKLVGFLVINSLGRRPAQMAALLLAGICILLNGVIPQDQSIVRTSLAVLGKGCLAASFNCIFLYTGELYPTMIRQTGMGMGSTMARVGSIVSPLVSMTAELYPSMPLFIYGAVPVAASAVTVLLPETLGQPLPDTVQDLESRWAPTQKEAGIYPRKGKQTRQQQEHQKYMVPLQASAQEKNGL

[13] = target: Acidic mammalian chitinase (Mus musculus, UniProt Q91XA9); test: Inhibition of full-length C-terminal his-tagged mouse AMCase expressed in expressed in CHO-K1 cells assessed as reduction in chitinolytic activity using 4-methylumbelliferyl-beta-D-N,N'-diacetylchitobioside hydrate as substrate after 60 mins by fluorometric assay; assay type: cell-based
Chain of Acidic mammalian chitinase (Q91XA9 whole entry): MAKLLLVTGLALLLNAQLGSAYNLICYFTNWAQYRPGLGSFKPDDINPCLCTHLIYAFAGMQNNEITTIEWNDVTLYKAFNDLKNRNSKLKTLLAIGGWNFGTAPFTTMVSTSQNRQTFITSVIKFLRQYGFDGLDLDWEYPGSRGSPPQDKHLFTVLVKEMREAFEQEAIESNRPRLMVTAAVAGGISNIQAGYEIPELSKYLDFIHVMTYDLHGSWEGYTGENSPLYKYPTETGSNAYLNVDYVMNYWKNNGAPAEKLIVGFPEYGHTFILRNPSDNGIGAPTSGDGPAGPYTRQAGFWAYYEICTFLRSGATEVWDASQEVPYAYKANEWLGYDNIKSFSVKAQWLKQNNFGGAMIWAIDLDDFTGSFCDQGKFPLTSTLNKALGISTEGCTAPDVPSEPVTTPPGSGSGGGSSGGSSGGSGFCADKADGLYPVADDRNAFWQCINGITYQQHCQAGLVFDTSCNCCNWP

[14] = AUC (0 to 24 hrs) in Beagle dog at 10 mg/kg, po administered as single dose by LC-MS/MS analysis; assay type: ADME, organism-based, Canis lupus familiaris; parameters: time < 24 hr, route oral, dose 10 mg/kg; details: in vivo
[15] = Elimination half-life in Sprague-Dawley rat at 6 mg/kg, po administered as single dose by LC-MS/MS analysis; assay type: ADME, organism-based; details: in vivo, read-out: beta t1/2 (converted)
[16] = Drug uptake in C57BL/6N mouse plasma at 30 mg/kg, po qd administered via gavage measured 24 hrs post dose; assay type: ADME, organism-based; details: in vivo
[17] = target: ATP-binding cassette sub-family C member 2 (Homo sapiens, UniProt Q92887); test: Inhibition of MRP2 (unknown origin) at 1 to 10 uM; details: dose 1-10 µM
Chain of ATP-binding cassette sub-family C member 2 (Q92887 whole entry): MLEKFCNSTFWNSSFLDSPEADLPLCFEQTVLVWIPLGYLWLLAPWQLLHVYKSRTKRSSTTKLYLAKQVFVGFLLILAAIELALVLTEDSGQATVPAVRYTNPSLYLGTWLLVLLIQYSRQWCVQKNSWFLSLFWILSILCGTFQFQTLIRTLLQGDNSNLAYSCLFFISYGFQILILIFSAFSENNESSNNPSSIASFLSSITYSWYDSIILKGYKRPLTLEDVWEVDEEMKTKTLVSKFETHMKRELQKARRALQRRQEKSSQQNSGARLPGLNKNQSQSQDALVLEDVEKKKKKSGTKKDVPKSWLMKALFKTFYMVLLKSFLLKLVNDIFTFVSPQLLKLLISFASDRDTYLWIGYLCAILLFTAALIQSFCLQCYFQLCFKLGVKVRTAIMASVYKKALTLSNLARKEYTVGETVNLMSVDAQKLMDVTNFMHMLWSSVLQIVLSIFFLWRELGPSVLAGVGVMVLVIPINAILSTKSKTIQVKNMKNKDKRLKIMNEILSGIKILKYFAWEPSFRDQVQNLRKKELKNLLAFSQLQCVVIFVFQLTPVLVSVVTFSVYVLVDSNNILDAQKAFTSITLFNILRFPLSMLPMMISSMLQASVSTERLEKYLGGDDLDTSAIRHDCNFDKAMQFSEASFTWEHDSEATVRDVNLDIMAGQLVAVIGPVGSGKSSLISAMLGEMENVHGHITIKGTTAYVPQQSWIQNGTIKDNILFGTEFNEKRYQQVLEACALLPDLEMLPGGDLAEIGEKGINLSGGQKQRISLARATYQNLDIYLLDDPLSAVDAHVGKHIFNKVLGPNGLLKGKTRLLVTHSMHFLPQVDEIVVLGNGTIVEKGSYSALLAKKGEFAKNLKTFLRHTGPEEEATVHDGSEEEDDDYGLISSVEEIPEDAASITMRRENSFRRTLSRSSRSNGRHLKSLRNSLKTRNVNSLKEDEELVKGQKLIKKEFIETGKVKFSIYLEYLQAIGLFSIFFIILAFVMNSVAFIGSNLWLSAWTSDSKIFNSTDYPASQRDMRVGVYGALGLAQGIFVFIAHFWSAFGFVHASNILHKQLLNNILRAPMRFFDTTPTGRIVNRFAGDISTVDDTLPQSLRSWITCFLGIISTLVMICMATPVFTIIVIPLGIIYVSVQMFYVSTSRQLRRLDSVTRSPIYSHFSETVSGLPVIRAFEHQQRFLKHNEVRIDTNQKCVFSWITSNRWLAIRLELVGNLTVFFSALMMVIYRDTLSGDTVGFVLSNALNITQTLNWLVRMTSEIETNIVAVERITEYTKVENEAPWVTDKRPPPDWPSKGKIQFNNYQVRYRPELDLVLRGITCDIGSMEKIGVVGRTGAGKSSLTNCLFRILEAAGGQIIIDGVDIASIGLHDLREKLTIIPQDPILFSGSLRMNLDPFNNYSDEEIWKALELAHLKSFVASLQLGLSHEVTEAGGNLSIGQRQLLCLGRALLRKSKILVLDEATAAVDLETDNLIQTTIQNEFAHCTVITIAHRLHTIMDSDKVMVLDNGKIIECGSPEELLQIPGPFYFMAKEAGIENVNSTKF

[18] = AUC (0 to 24 hrs) in Balb/c mouse at 3 mg/kg, iv administered as single bolus dose by LC-MS/MS analysis; assay type: ADME, organism-based; parameters: time < 24 hr, route intravenous, dose 3 mg/kg; details: in vivo
[19] = AUC (0 to 24 hrs) in Sprague-Dawley rat at 2 mg/kg, iv administered as single bolus dose by LC-MS/MS analysis; assay type: ADME, organism-based; parameters: time < 24 hr, route intravenous, dose 2 mg/kg; details: in vivo
[20] = target: Solute carrier family 22 member 2 (Homo sapiens, UniProt O15244); test: Inhibition of OCT2 (unknown origin) at 1 to 10 uM
[21] = Elimination half-life in Balb/c mouse at 10 mg/kg, po administered as single dose by LC-MS/MS analysis; assay type: ADME, organism-based; details: in vivo, read-out: beta t1/2 (converted)
Mus musculus [22] = species: Mus musculus; details: C57BL/6N, dose 30.0 mg/kg; remark: listed apart in the source
Cytochrome P450 2C8 = Cytochrome P450 2C8 (Homo sapiens, UniProt P10632); test: Inhibition of CYP2C8 (unknown origin); assay type: ADME
[23] = Dose normalized AUC (0 to 24 hrs) in Beagle dog at 3 mg/kg, iv administered as single bolus dose by LC-MS/MS analysis; assay type: ADME, organism-based, Canis lupus familiaris; details: in vivo
[24] = target: Multidrug resistance-associated protein 1 (Homo sapiens, UniProt P33527); test: Inhibition of MRP1 (unknown origin) at 1 to 10 uM; details: dose 1-10 µM
[25] = Clearance (0 to 24 hrs) in Beagle dog at 3 mg/kg, iv administered as single bolus dose by LC-MS/MS analysis; assay type: ADME, organism-based, Canis lupus familiaris; details: in vivo
[26] = Initial plasma concentration in Balb/c mouse at 3 mg/kg, iv administered as single bolus dose by LC-MS/MS analysis; assay type: ADME, organism-based
[27] = Cmax in Beagle dog at 3 mg/kg, iv administered as single bolus dose by LC-MS/MS analysis; assay type: ADME, organism-based, Canis lupus familiaris; parameters: route intravenous, dose 3 mg/kg; details: in vivo
Cytochrome P450 3A4 = Cytochrome P450 3A4 (Homo sapiens, UniProt P08684); test: Inhibition of CYP3A4 (unknown origin); assay type: ADME
[28] = Drug uptake in C57BL/6N mouse plasma at 30 mg/kg, po bid administered via gavage measured 24 hrs post dose; assay type: ADME, organism-based; details: in vivo
Mus musculus [29] = species: Mus musculus; details: C57BL/6N, dose 30.0 mg/kg; remark: listed apart in the source
[30] = Dose normalized Cmax in Sprague-Dawley rat at 6 mg/kg, po administered as single dose by LC-MS/MS analysis; assay type: ADME, organism-based; details: in vivo
[31] = AUC (0 to 24 hrs) in Sprague-Dawley rat at 6 mg/kg, po administered as single dose by LC-MS/MS analysis; assay type: ADME, organism-based; parameters: time < 24 hr, route oral, dose 6 mg/kg; details: in vivo
[32] = Dose normalized AUC (0 to 24 hrs) in Beagle dog at 10 mg/kg, po administered as single dose by LC-MS/MS analysis; assay type: ADME, organism-based, Canis lupus familiaris; details: in vivo
Cytochrome P450 2B6 = Cytochrome P450 2B6 (Homo sapiens, UniProt P20813); test: Inhibition of CYP2B6 (unknown origin); assay type: ADME
Chain of Cytochrome P450 2B6 (P20813 whole entry): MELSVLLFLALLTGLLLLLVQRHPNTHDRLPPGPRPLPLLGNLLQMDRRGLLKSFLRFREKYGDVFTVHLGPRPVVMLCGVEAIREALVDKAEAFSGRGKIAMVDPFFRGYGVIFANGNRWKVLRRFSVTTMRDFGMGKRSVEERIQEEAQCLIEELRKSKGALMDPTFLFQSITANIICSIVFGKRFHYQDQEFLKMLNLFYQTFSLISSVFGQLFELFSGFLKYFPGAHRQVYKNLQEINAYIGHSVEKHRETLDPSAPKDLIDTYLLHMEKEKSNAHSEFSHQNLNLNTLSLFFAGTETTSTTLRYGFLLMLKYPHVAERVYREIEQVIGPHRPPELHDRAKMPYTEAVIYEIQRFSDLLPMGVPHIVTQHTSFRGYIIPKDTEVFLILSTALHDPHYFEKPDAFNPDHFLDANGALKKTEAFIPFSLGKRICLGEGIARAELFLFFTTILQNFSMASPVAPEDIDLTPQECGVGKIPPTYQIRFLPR

[33] = target: Solute carrier organic anion transporter family member 1B3 (Homo sapiens, UniProt Q9NPD5); test: Inhibition of OATP1B3 (unknown origin) at 1 to 10 uM; details: dose 1-10 µM
[34] = target: Broad substrate specificity ATP-binding cassette transporter ABCG2 (Homo sapiens, UniProt Q9UNQ0); test: Inhibition of BCRP (unknown origin) at 1 to 10 uM; details: dose 1-10 µM
[35] = Oral bioavailability in Beagle dog at 10 mg/kg, administered as single dose by LC-MS/MS analysis; assay type: ADME, organism-based, Canis lupus familiaris; details: in vivo
[36] = Volume of distribution at steady state in Sprague-Dawley rat at 2 mg/kg, iv administered as single bolus dose measured upto 24 hrs by LC-MS/MS analysis; assay type: ADME, organism-based; details: in vivo, read-out: Vdss
Cytochrome P450 2C19 = Cytochrome P450 2C19 (Homo sapiens, UniProt P33261); test: Inhibition of CYP2C19 (unknown origin); assay type: ADME

For `C[C@H]1CN(C2CCN(c3nc(N)n[nH]3)CC2)[C@@H](Cc2ccc(Cl)cc2)CO1` [5-(4-((2S,5S)-5-(4-CHLOROBENZYL)-2-METHYLMORPHOLINO)PIPERIDIN-1-YL)-1H-1,2,4-TRIAZOL-3-AMINE], the bioavailability [1] was 107%, the “inhibition (INH)” value [2] was “Not Active” and the clearance [3] was 5.67 mL/min/kg. It also gave a clearance [4] of 5.83 mL/min/kg, a Cmax/dose [5] of 0.34 kg.mg/L.mL and an IC50 (Chitotriosidase-1) of 28 nM. For the same molecule, the Ki (Chitotriosidase-1) was 26 nM, the AUC/dose [6] was 2.87 kg·mg·h/L/mg and the Vd [7] was 1.01 L/kg. The “inhibition (INH)” value [8] was “Not Active”, the “inhibition (INH)” value (Cytochrome P450 2D6) was “Not Active” and the half-life [9] was 4.49 h. The Cmax [10] was 2210 ng/mL, the inhibition (Mus musculus [11]) was “Active” and the “inhibition (INH)” value (Cytochrome P450 1A2) was “Not Active”. For the same molecule, the “inhibition (INH)” value [12] was “Not Active”, the IC50 [13] was 7.8 nM and the Ki [13] was 5.7 nM. The AUC(0-t) at 24 h [14] was 94100 ng·h/mL, the half-life [15] was 4.47 h and the Drug uptake [16] was “Active”. For the same molecule, the “inhibition (INH)” value [17] was “Not Active”, the AUC(0-t) at 24 h [18] was 8600 ng·h/mL and the AUC(0-t) at 24 h [19] was 5560 ng·h/mL. The “inhibition (INH)” value [20] was “Not Active”, the half-life [21] was 1.88 h and the inhibition (Mus musculus [22]) was “Active”. For the same molecule, the “inhibition (INH)” value (Cytochrome P450 2C8) was “Not Active”, the AUC/dose [23] was 10.34 kg·mg·h/L/mg and the “inhibition (INH)” value [24] was “Not Active”. For the same molecule, the clearance [25] was 1.67 mL/min/kg, the C0 [26] was 3970 ng/mL and the Cmax [27] was 2470 ng/mL. The “inhibition (INH)” value (Cytochrome P450 3A4) was “Not Active”, the Drug uptake [28] was “Active” and the inhibition (Mus musculus [29]) was “Active”. For the same molecule, the Cmax/dose [30] was 0.37 kg.mg/L.mL, the AUC(0-t) at 24 h [31] was 20300 ng·h/mL and the AUC/dose [32] was 9.41 kg·mg·h/L/mg. The “inhibition (INH)” value (Cytochrome P450 2B6) was “Not Active”, the “inhibition (INH)” value [33] was “Not Active” and the “inhibition (INH)” value [34] was “Not Active”. The bioavailability [35] was 91.4%, the Vd [36] was 1.82 L/kg and the “inhibition (INH)” value (Cytochrome P450 2C19) was “Not Active”.
